Reference: patent publication US12558345B2, “CHK1/2 inhibitors for use in the treatment of neuroblastomas and/or soft tissue sarcomas” (Eli Lilly and Company, priority 2015, dated 2026)

How the values were obtained:
[1] = test system: RD, SJCRH30, Saos-2 and RD-ES cell lines; assay: In Vitro Response of Pediatric Cell Lines (western blot); assay type: cell-based; settings: 24 hours at 5 and 50 nM
Description: Cellular lysates can be obtained from embryonal and alveolar rhabdomyosarcoma (RD and SJCRH30, respectively), osteosarcoma (Saos-2), and Ewing's sarcoma (RD-ES) cell lines treated with 5-(5-(2-(3-aminopropoxy)-6-methoxyphenyl)-1H-pyrazol-3-ylamino)pyrazine-2-carbonitrile methanesulfonic acid monohydrate (Example 5) for 24 hours at 5 and 50 nM final concentration.
A western blot can be run using the cellular lysates described above. […] Higher levels of DNA damage can be observed with CHK1 inhibition. Accordingly, the levels of gammaH2AX, a signal for DNA damage, increase upon treatment with 5-(5-(2-(3-aminopropoxy)-6-methoxyphenyl)-1H-pyrazol-3-ylamino)pyrazine-2-carbonitrile methanesulfonic acid monohydrate (Example 5).

[2] = test system: CTG-0142 EWS patient-derived xenograft; assay: Xenograft Tumor Model CTG-0142; assay type: in vivo, mouse; settings: comparator day 28, p-value 0.376
Description: (§1) The efficacy of 5-(5-(2-(3-aminopropoxy)-6-methoxyphenyl)-1H-pyrazol-3-ylamino)pyrazine-2-carbonitrile methanesulfonic acid monohydrate is measurable in vivo in mouse models of neuroblastomas and human pediatric and adult sarcomas. 5-(5-(2-(3-Aminopropoxy)-6-methoxyphenyl)-1H-pyrazol-3-ylamino)pyrazine-2-carbonitrile methanesulfonic acid monohydrate (10 mg/kg) can be administered subcutaneously to nude mice bearing either cell-derived xenografts (CDX) or patient-derived xenografts (PDX) of human rhabdomyosarcoma, desmoplastic small round cell tumor (DSRCT), osteosarcoma, and Ewing's sarcoma using a 3 day on, 4 day off b.i.d. dosing schedule. Tumor volume and body weight can be measured two times per week. Tumor-specific parameters can be evaluated by immumohistochemistry. […]
(§2) For all “ST” models (encompassing RMS and LMS), patient-derived xenografts are established from viable human tumor tissue and are serially passaged in animals a limited number of times to maintain tumor heterogeneity. […] Tumor response is determined by tumor volume measurement performed twice per week during the course of treatment.

[3] = test system: CTG-0785 EWS patient-derived xenograft; assay: Xenograft Tumor Model CTG-0785; assay type: in vivo, mouse; settings: comparator day 18, p-value 0.052
Description: as §1, §2

[4] = test system: CTG-1006 LMS patient-derived xenograft; assay: Xenograft Tumor Model CTG-1006; assay type: in vivo, mouse; settings: comparator day 27, p-value <0.001
From the text: (§3) For all “CTG” models (encompassing human RMS, DSRCT, EWS, OS and LMS patient-derived xenograft models), female NCr nude spontaneous mutant mice (5-8 weeks old, Taconic) are implanted unilaterally in the flank region with tumor fragments harvested from donor animals, each implanted from a specific passage lot.
(§4) For all “ST” models (encompassing RMS and LMS), patient-derived xenografts are established from viable human tumor tissue and are serially passaged in animals a limited number of times to maintain tumor heterogeneity. In subcutaneous models, athymic nude mice (Crl:NU(NCr)-Foxn1nu) or CB-17 SCID mice (CRL-CB17/Icr-Prkdcscid/IcrIcoCrl) are injected or implanted unilaterally into the flank with tumor fragments harvested from host animals, each implanted from a specific passage lot. For all studies, measure tumor growth and body weight twice per week beginning on the seventh day after implantation. When tumor size reaches 150-300 mm^3, randomize animals and group into groups of 4-7 animals. Prepare test compound in an appropriate vehicle (e.g. vehicle can be 20% Captisol® in sterile water) and administer subcutaneously for three consecutive days followed by a four day dosing holiday and repeat for a minimum of four weeks. Tumor response is determined by tumor volume measurement performed twice per week during the course of treatment.

[5] = test system: ST240 LMS patient-derived xenograft; assay: Xenograft Tumor Model ST240; assay type: in vivo, mouse; settings: comparator day 29, p-value 0.022
Description: as §4

[6] = test system: Leiomyosarcoma xenograft models; assay: Sarcoma xenograft models by tumor subtype: Leiomyosarcoma; assay type: in vivo, mouse
From the text: as §3, §4

[7] = Leiomyosarcoma, age of patients 48-64 years

`COc1cccc(OCCCN)c1-c1cc(Nc2cnc(C#N)cn2)n[nH]1` [Example 5, 5-(5-(2-(3-Aminopropoxy)-6-methoxyphenyl)-1H-pyrazol-3-ylamino)pyrazine-2-carbonitrile methanesulfonic acid monohydrate] was tested, and the CHK1 protein levels [1] was “do not change”, the “levels of gammaH2AX (signal for DNA damage)” value [1] was “increase” and the “levels of phospho-AKT” value [1] was “do not appear to change”. For the same molecule, the “phospho-CHK1 (S345) levels” value [1] was “increase”, the “levels of phospho-ERK 1/2 (T202/Y204)” value ([1]; RD-ES non-responding) was “increase in three out of four cell lines” and the phospho-hnRNP-C levels ([1]; unaffected in the RD-ES cell line) was “increase”. For the same molecule, the “% T/C” value [2] was 66%, the “% T/C” value [3] was 57% and the “% Regression” value [4] was −24%. For the same molecule, the “% T/C” value [5] was 67%, the “Result of Treatment: Partial Response (models)” value [6, 7] was 1/5 Partial and the “Result of Treatment: Stable Disease (models)” value [6, 7] was “Response; 1/5”. The “activity in PDX models” value ([6]; PDX models of leiomyosarcoma) was “active”.
